Entries after “also recorded” stand apart in the source; their conditions may differ.

This assay has as its system antibodies present in IFA sero-positive sera from patients infected with Bartonella henselae (IgG). The experiment in a line: IgG ELISA with synthetic polypeptides of 17-kDa protein as coating antigen. It is filed as binding, human. Conditions: for antibody binding activity in ELISA: IFA sero-positive sera, mostly relative to peptide 3C. From the text: A panel of 47 human sera, including 27 IFA positive and 20 WA negative sera, was used. ROC analysis was used to analysis the binding activity via OD450nm (FIGS. 19 and 21). AUCs for peptide 3C, 3B, 3D, and 3E were 0.9, 0.5, 0.5, and 0.8 respectively (FIGS. 19 and 21). […] Thus, the antibody recognition site seems to be present on peptide 3C (but not peptides 3B and 3D).
We adopted an IgG ELISA assay and evaluated the binding activity of the modified peptides towards IgG. The ELISA procedure involves: (i) coating 96-well micro-titer plates with modified peptides at varying concentrations (e.g., 0.2-5 μg/ml) at 4° C. overnight; (ii) adding 5% skim milk to block non-specific binding; (iii) adding patients' sera to allow formation of antibody-antigen complex; (iv) detecting the antibody-antigen complex. IFA sero-positive sera served as positive controls and IFA sero-negative sera served as negative controls. Detection of antibody-antigen complex was performed with the use of horseradish peroxidase.
A panel of 47 human sera was used in an ELISA assay to evaluate the sensitivity and specificity for synthetic polypeptides of 17-kDa protein. This panel contains 27 IFA positive sera and 20 IFA negative sera. Synthetic polypeptides used include amino acid substitution (Peptide 3C-CS3), addition (Peptide 3C-Ext2), and deletion (Peptide 3C-Del). Antibody binding was reflected by OD450nm, which was analyzed by Interactive dot diagram in statistic software MedCalc.

Where [1] appears, read: ELISA, panel of 47 human sera (27 IFA positive, 20 IFA negative), ROC analysis of OD450nm.
[2] abbreviates: panel study, 47 human sera (27 IFA positive, 20 IFA negative), interactive dot diagram.

On to “DDLQKQLKEKLEKSDVRL (listed as Bartonella henselae) [Peptide 3C-CS1, peptide 3C with conservative substitution E to D]”, for which the “antibody binding activity in ELISA” value was “identical binding activity as compared to that of peptide 3C”.

With “EDIQKQLKEKLEKSDVRL (listed as Bartonella henselae) [Peptide 3C-CS2, peptide 3C with conservative substitution L to I]”, the “antibody binding activity in ELISA” value is given as “same binding activity”.

As to “EDLQKQLKEKLEKSDVRL (listed as Bartonella henselae) [Peptide 3C, synthetic polypeptide, aa 131-148 of 17-kDa protein]”, the “antibody binding activity in ELISA” value is recorded as “possesses the antibody binding activity; also recorded: dose-dependent increase in binding towards sero-positive serum”. Under setting [1], this substance returned an AUC of 0.9, a sensitivity of 77.8% and a specificity of 88.2%. In addition, for the setting “listed as SEQ ID NO: 22”, the “antibody binding activity in ELISA” value is listed as “possesses the ability to bind to antibodies present in IFA positive sera”.

With “EDLQKQLKSDKEVKLRLE (listed as Bartonella henselae) [Peptide 3C-RD2, peptide 3C with substitution of the last 10 AA at C-terminus]”, the “antibody binding activity in ELISA” value is “completed abrogated the binding activity; also recorded: fail to bind antibody”. Under setting [2], this substance had a sensitivity of roughly 11% and a specificity of 0%.

“EDLQKQVKEKLEKSDVRL (listed as Bartonella henselae) [Peptide 3C-CS3, peptide 3C with conservative substitution L to V]”: the “antibody binding activity in ELISA” value is listed as “same binding activity; also recorded: identical binding activity as compared to that of peptide 3C”. Also, under setting [2], the sensitivity is roughly 80% and the specificity is reported as roughly 90%.

Take “ED_QKQLKEKLEKSDVRL (EDQKQLKEKLEKSDVRL; listed as Bartonella henselae) [Peptide 3C-Del, peptide 3C with leucine at third position from N-terminus deleted]”: the “antibody binding activity in ELISA” value was “did not alter the binding activity; also recorded: identical binding activity as compared to that of peptide 3C”. Under setting [2], this substance gave a sensitivity of roughly 80% and a specificity of roughly 90%.

Under setting [1], “EEQTQKKHEDLQKQLK (listed as Bartonella henselae) [Peptide 3D, synthetic polypeptide, aa 123-138 of 17-kDa protein]” registered an AUC of 0.5, a sensitivity of 85.2% and a specificity of 25.0%.

As for “EKLEKSDVRL (listed as Bartonella henselae) [Peptide 3E, synthetic polypeptide, aa 139-148 of 17-kDa protein]”, the “antibody binding activity in ELISA” value was “not sufficient to complete antibody binding”. Under setting [1], this substance registered an AUC of 0.8, a sensitivity of 40.7% and a specificity of 88.2%. For the same substance, under “listed as SEQ ID NO: 33”, the “antibody binding activity in ELISA” value was “by itself insufficient to render the ability to bind antibodies present in IFA positive sera”.

In the case of “EQTQKKHEDLQKQLKEKLEKSDVRL (listed as Bartonella henselae) [Peptide 3C-Ext2, peptide 3C with addition of 7 AA at N-terminus]”, the “antibody binding activity in ELISA” value is on record as “same binding activity as compared to that of peptide 3C; also recorded: identical binding activity as compared to that of peptide 3C”. Under setting [2], this substance came in with a sensitivity of roughly 80% and a specificity of roughly 90%.

Consider “LKLELELVQDSDKQEKRK (listed as Bartonella henselae) [Peptide 3C-RD, peptide 3C with substitution of the entire 18 AA]”, for which the “antibody binding activity in ELISA” value was “no binding activity; also recorded: fail to bind antibody”. Under setting [2], this substance showed a sensitivity of roughly 11% and a specificity of 0%.
